Source: PubChem BioAssay (NCI)
Several values for one entry are separate records, joined by “and”; a condition that tells them apart may be missing. Identical values can stand only once.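 Assay format: 96-well plates, 48-hour exposure. The concentration for 50% growth inhibition is given as GI50. TGI: total growth inhibition.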

Key:
Assay in all cases: NCI anticancer screen, dose series, 48 h
[1] = test system: CAKI-1 renal
[2] = test system: SR leukemia
[3] = test system: MALME-3M melanoma
[4] = test system: HOP-62 NSCLC
[5] = test system: MOLT-4 leukemia
[6] = test system: XF 498 CNS
[7] = test system: SK-OV-3 ovarian
[8] = test system: OVCAR-3 ovarian
[9] = test system: ACHN renal
[10] = test system: CCRF-CEM leukemia
[11] = test system: SF-295 CNS
[12] = test system: HL-60(TB) leukemia
[13] = test system: UO-31 renal
[14] = test system: RPMI-8226 leukemia
[15] = test system: SNB-19 CNS
[16] = test system: SF-268 CNS
[17] = test system: TK-10 renal
[18] = test system: K-562 leukemia
[19] = test system: HOP-18 NSCLC
[20] = test system: SF-539 CNS
[21] = test system: EKVX NSCLC
[22] = test system: UACC-257 melanoma
[23] = test system: IGROV1 ovarian
[24] = test system: U251 CNS
[25] = test system: KM20L2 colon
[26] = test system: SNB-78 CNS
[27] = test system: HCT-116 colon
[28] = test system: SN12C renal
[29] = test system: DMS 114 small cell lung
[30] = test system: HCC-2998 colon
[31] = test system: HOP-92 NSCLC
[32] = test system: NCI-H226 lung
[33] = test system: M19-MEL melanoma
[34] = test system: KM12 colon
[35] = test system: HCT-15 colon
[36] = test system: OVCAR-4 ovarian
[37] = test system: A549 NSCLC
[38] = test system: SK-MEL-28 melanoma
[39] = test system: OVCAR-8 ovarian
[40] = test system: SW-620 colon
[41] = test system: NCI-H23 lung
[42] = test system: UACC-62 melanoma
[43] = test system: COLO 205 colon
[44] = test system: LXFL 529 NSCLC
[45] = test system: OVCAR-5 ovarian
[46] = test system: DMS 273 small cell lung
[47] = test system: 786-0 renal
[48] = test system: M14 melanoma
[49] = test system: NCI-H522 lung
[50] = test system: A498 renal
[51] = test system: SNB-75 CNS
[52] = test system: SK-MEL-5 melanoma
[53] = test system: HT29 colon
[54] = test system: DLD-1 colon

SMILES: COc1ccc2[nH]c3c(C)c4cc[n+](COC(=O)c5ccccc5)cc4c(C)c3c2c1
- TGI [1]: > 100000 nM
- TGI [2]: 213 nM
- TGI [3]: 7060 nM
- TGI [4]: 24000 nM
- TGI [5]: 584 nM
- TGI [6]: 5670 nM
- TGI [7]: 5780 nM
- TGI [8]: 5270 nM
- TGI [9]: 5970 nM
- TGI [10]: 1750 nM
- TGI [11]: 1650 nM
- TGI [12]: 4130 nM
- TGI [13]: 5680 nM
- TGI [14]: 1700 nM
- TGI [15]: 6850 nM
- TGI [16]: 3810 nM
- TGI [17]: 4400 nM
- TGI [18]: 1460 nM
- TGI [19]: 312 nM

SMILES: COc1cc2c(c(OC)c1OC)-c1ccc(SC)c(=O)cc1[C@@H](NC(=O)c1ccc(F)cc1)CC2
- GI50 [20]: < 10 nM
- TGI [20]: 69.6 nM and < 10 nM
- GI50 [2]: 16.7 nM and < 10 nM
- TGI [2]: > 100000 nM
- GI50 [21]: < 10 nM
- TGI [21]: > 100000 nM
- TGI [22]: > 100000 nM
- GI50 [3]: < 10 nM
- TGI [3]: 91100 nM
- GI50 [23]: < 10 nM
- TGI [23]: > 100000 nM
- GI50 [24]: < 10 nM
- TGI [24]: 11.3 nM
- GI50 [25]: < 10 nM
- TGI [25]: 42.7 nM and < 10 nM
- GI50 [4]: < 10 nM
- TGI [4]: 39900 nM
- GI50 [26]: < 10 nM
- TGI [26]: > 100000 nM
- GI50 [5]: < 10 nM
- TGI [5]: > 100000 nM
- GI50 [27]: < 10 nM
- TGI [27]: < 10 nM
- GI50 [28]: < 10 nM
- TGI [28]: 46800 nM
- GI50 [29]: 26.7 nM and < 10 nM
- TGI [29]: 63.6 nM and < 10 nM
- TGI [6]: 84.4 nM
- GI50 [30]: < 10 nM
- TGI [30]: 57.2 nM and < 10 nM
- TGI [31]: 95.8 nM
- GI50 [32]: < 10 nM
- TGI [32]: 74.4 nM and < 10 nM
- GI50 [7]: < 10 nM
- TGI [7]: 72 nM and < 10 nM
- GI50 [33]: < 10 nM
- TGI [33]: > 100000 nM
- GI50 [34]: < 10 nM
- TGI [34]: 87.1 nM and 28.4 nM
- GI50 [35]: 43 nM
- TGI [36]: 91100 nM
- GI50 [37]: 48.9 nM and < 10 nM
- TGI [37]: > 100000 nM
- TGI [38]: > 100000 nM
- GI50 [39]: < 10 nM
- TGI [39]: 14600 nM
- GI50 [8]: < 10 nM
- TGI [8]: 37.8 nM and < 10 nM
- GI50 [9]: < 10 nM
- TGI [9]: 91300 nM
- TGI [10]: > 100000 nM
- GI50 [40]: < 10 nM
- TGI [40]: > 100000 nM
- GI50 [41]: < 10 nM
- TGI [41]: < 10 nM
- GI50 [11]: < 10 nM
- TGI [12]: 12700 nM
- GI50 [42]: < 10 nM
- TGI [42]: 27600 nM
- GI50 [43]: < 10 nM
- TGI [43]: 38.8 nM and < 10 nM
- GI50 [44]: < 10 nM
- TGI [44]: > 100000 nM
- TGI [45]: > 100000 nM
- TGI [46]: 44700 nM
- GI50 [47]: < 10 nM
- TGI [47]: 11500 nM
- GI50 [48]: < 10 nM
- TGI [48]: 2690 nM
- TGI [49]: < 10 nM
- TGI [13]: 46600 nM
- GI50 [50]: < 10 nM
- TGI [50]: 75.7 nM and < 10 nM
- GI50 [51]: < 10 nM
- TGI [51]: < 10 nM
- GI50 [15]: 28.7 nM and < 10 nM
- GI50 [16]: < 10 nM
- TGI [16]: 16800 nM
- GI50 [52]: 30.5 nM
- GI50 [17]: < 10 nM
- TGI [17]: 35500 nM
- GI50 [18]: < 10 nM
- TGI [18]: > 100000 nM
- GI50 [53]: < 10 nM
- TGI [53]: 89.1 nM and < 10 nM
- GI50 [54]: < 10 nM
- TGI [54]: > 100000 nM
